# Test results taken from ChEMBL document CHEMBL3856231 (J Med Chem, 2016).
# Legend:
# [1] = Half life in rat liver microsomes by LC/MS/MS analysis; format: ADME
# [2] = biological target: T1, ALK tyrosine kinase receptor (Homo sapiens, UniProt Q9UM73); experiment: Inhibition of human ALK expressed in baculovirus using recombinant GST PLC-gamma as substrate assessed as phosphorylation of the substrate after 15 mins by TRF assay
# Target sequence in this assay (Q9UM73 whole entry): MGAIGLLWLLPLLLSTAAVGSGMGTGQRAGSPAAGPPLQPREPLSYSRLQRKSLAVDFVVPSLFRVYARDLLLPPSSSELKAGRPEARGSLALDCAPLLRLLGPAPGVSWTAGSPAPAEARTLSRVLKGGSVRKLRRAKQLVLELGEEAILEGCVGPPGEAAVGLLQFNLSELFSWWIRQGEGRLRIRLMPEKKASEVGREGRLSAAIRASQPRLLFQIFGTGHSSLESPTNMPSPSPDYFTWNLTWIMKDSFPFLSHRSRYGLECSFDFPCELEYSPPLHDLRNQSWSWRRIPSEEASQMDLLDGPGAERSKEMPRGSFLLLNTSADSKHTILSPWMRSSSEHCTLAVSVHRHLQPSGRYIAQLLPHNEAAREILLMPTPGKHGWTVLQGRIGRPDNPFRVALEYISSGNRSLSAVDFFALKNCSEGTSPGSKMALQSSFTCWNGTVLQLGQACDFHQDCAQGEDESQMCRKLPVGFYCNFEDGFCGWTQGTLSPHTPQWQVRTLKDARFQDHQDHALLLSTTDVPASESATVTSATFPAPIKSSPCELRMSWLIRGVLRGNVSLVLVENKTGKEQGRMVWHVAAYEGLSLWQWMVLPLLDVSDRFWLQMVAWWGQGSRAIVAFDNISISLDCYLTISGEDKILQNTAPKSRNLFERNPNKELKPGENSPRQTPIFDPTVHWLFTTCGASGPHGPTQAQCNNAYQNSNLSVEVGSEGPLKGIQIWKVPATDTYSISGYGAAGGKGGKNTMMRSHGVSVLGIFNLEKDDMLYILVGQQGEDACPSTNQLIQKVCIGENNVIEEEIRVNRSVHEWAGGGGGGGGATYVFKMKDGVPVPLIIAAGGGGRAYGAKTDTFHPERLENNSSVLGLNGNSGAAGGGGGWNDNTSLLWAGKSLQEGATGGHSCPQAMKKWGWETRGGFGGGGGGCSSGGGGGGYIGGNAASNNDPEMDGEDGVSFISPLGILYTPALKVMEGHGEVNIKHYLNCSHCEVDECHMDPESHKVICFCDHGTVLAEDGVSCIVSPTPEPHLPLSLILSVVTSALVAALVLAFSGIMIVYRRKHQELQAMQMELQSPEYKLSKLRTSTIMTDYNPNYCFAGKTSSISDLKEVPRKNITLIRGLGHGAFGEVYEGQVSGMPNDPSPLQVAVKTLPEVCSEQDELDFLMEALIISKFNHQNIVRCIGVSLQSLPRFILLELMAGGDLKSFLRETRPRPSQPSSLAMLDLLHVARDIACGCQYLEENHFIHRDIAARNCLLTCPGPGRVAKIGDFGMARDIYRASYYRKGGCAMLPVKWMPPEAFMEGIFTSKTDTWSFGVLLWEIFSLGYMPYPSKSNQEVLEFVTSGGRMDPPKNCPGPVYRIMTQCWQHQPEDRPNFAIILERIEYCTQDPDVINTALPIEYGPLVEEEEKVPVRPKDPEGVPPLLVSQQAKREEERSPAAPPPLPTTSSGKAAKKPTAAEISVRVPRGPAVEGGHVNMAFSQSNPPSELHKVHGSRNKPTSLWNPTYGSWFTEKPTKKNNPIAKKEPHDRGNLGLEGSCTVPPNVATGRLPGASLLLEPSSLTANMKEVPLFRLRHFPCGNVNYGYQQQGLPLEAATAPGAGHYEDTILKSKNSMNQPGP
# [3] = Half life in human liver microsomes by LC/MS/MS analysis; format: ADME
# Insulin receptor = Insulin receptor (Homo sapiens, UniProt P06213)
# [4] = biological target: Voltage-gated inwardly rectifying potassium channel KCNH2 (Homo sapiens, UniProt Q12809); experiment: Inhibition of human ERG
# [5] = biological target: T1, ALK tyrosine kinase receptor; experiment: Inhibition of NPM-ALK phosphorylation in human SUP-M2 cells after 2 to 3 hrs by ELISA; format: cell-based
# Target sequence in this assay (Q9UM73 19-1620 limits assumed): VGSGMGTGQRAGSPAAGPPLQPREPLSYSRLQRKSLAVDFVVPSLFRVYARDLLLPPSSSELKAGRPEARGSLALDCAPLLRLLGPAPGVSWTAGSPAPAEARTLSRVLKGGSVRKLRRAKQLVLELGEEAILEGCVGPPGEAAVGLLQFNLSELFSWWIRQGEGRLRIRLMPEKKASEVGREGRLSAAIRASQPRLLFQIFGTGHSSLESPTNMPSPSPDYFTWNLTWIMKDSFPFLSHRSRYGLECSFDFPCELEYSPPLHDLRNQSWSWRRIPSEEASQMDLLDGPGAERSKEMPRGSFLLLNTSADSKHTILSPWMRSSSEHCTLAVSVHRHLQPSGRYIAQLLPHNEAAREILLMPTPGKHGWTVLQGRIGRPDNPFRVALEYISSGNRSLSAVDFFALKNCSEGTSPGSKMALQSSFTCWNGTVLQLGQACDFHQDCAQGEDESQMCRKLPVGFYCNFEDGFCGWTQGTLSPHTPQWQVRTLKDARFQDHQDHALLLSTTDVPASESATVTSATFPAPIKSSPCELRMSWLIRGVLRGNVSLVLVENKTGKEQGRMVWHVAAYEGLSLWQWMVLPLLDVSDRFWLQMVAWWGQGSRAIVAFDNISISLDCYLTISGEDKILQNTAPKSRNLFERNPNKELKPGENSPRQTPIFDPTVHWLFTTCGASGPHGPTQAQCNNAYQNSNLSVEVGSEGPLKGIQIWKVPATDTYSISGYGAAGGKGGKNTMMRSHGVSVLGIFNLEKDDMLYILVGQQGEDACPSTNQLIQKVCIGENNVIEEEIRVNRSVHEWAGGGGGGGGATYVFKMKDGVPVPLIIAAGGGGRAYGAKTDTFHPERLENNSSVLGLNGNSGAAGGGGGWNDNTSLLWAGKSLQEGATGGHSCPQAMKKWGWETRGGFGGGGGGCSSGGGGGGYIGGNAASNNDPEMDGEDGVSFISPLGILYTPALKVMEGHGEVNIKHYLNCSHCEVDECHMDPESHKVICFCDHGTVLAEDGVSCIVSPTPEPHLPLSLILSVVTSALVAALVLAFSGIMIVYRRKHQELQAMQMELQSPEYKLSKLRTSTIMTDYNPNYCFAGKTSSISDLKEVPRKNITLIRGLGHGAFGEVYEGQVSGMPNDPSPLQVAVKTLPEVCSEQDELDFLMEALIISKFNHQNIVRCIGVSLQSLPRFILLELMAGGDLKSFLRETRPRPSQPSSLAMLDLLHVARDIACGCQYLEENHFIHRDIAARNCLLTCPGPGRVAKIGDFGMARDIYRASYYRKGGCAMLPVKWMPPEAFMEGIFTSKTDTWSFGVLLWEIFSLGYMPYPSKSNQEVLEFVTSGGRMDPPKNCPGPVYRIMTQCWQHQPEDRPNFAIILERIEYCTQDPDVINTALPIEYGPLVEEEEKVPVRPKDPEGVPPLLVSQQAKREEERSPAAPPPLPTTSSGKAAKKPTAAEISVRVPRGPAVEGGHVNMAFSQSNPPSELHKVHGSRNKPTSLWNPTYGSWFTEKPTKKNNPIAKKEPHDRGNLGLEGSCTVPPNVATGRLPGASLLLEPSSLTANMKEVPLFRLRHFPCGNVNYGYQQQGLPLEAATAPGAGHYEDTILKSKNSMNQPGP
# [6] = Oral bioavailability in Sprague-Dawley rat at 5 mg/kg by LC/MS/MS analysis; format: ADME, organism-based; details: in vivo
# Voltage-gated inwardly rectifying potassium channel KCNH2, sequence (Q12809 whole entry): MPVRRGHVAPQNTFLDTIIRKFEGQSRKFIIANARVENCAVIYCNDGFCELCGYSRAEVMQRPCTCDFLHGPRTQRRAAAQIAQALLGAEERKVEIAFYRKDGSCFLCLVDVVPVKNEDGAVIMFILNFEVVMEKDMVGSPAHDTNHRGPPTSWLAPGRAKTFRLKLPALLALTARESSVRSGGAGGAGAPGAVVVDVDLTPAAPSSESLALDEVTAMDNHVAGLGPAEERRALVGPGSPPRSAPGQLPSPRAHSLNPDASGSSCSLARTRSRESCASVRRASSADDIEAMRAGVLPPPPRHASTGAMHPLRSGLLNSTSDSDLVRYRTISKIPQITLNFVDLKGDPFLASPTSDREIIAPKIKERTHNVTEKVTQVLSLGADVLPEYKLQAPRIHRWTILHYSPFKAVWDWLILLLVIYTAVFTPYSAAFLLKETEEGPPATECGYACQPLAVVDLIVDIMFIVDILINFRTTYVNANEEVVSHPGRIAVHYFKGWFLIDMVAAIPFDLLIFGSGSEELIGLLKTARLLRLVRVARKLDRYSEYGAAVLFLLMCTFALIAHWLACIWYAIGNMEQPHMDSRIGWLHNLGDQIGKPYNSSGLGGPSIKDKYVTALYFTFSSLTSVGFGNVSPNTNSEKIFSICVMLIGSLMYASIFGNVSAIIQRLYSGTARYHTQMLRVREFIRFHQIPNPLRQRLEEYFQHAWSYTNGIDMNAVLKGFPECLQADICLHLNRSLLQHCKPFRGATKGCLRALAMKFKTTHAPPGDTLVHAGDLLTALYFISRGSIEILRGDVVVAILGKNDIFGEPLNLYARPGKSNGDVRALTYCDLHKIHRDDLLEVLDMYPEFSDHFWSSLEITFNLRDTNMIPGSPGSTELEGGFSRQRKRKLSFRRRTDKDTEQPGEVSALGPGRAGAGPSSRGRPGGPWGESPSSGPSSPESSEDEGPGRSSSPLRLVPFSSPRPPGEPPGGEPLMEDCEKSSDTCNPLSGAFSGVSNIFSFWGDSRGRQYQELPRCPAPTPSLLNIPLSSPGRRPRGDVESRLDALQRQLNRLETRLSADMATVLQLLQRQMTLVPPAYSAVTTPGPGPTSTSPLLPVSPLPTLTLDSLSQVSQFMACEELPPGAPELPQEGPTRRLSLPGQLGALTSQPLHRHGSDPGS
SMILES,half-life [1] [min],IC50 [2] [nM],half-life [3] [min],IC50 (Insulin receptor) [nM],IC50 [5] [nM],bioavailability [6] [%],IC50 [4] [nM]
COc1c(Nc2ncc(Cl)c(N[C@H]3[C@@H](C(N)=O)[C@@H]4C=C[C@H]3C4)n2)ccc2c1CCC[C@@H](N1CCN(CCO)CC1)C2,,6.3,,,50,,> 10000
COCCNC1CCCc2c(ccc(Nc3ncc(Cl)c(N[C@H]4[C@@H](C(N)=O)[C@@H]5C=C[C@H]4C5)n3)c2OC)C1 (stereo partly specified),31,7,15,,,,
CNC(=O)c1ccccc1Nc1nc(Nc2ccc3c(c2OC)CCCC(N2CCN(CCO)CC2)C3)ncc1Cl (racemic),> 40,,> 40,,,47,≥ 10000
COc1c(Nc2ncc(Cl)c(Nc3ccccc3S(=O)(=O)N(C)C)n2)ccc2c1CCCC(N1CCN(CCO)CC1)C2 (racemic),40,4,18,,40,28,240
COc1c(Nc2ncc(Cl)c(Nc3ccccc3N3CCCS3(=O)=O)n2)ccc2c1CCCC(N1CCN(CCO)CC1)C2 (racemic),38,6.1,16,,60,48,
COc1c(Nc2ncc(Cl)c(Nc3ccccc3-n3cccn3)n2)ccc2c1CCCC(N1CCN(CCO)CC1)C2 (racemic),40,2.3,40,,20,19,3700
COc1ccccc1Nc1nc(Nc2ccc3c(c2OC)CCCC(N2CCN(CCO)CC2)C3)ncc1Cl (racemic),,44,,,,,
COc1c(Nc2ncc(Cl)c(Nc3ccccc3NS(C)(=O)=O)n2)ccc2c1CCCC(N1CCN(CCO)CC1)C2 (racemic),40,18,40,> 2000,,,
COc1c(Nc2ncc(Cl)c(Nc3ccccc3-c3nccn3C)n2)ccc2c1CCCC(N1CCN(CCO)CC1)C2 (racemic),22,5,18,,50,19,

# Further lines, with some results ahead:
half-life [1] [min],IC50 [2] [nM],half-life [3] [min],IC50 (Insulin receptor) [nM],IC50 [5] [nM],bioavailability [6] [%],SMILES,IC50 [4] [nM]
5,1.5,5,,,,COc1c(Nc2ncc(Cl)c(N[C@H]3[C@@H](C(N)=O)[C@@H]4C=C[C@H]3C4)n2)ccc2c1CCC[C@@H](N1CCOCC1)C2,
,39,,> 10000,,,COc1c(Nc2ncc(Cl)c(N[C@H]3[C@@H](C(N)=O)[C@@H]4C=C[C@H]3C4)n2)ccc2c1CC(N1CCOCC1)CCC2 (stereo partly specified),
5,7,6,,,,COc1c(Nc2ncc(Cl)c(N[C@H]3[C@@H](C(N)=O)[C@@H]4C=C[C@H]3C4)n2)ccc2c1CCC[C@H](N1CCOCC1)C2,
15,5.8,18,,30,10,COc1c(Nc2ncc(Cl)c(N[C@H]3[C@@H](C(N)=O)[C@@H]4C=C[C@H]3C4)n2)ccc2c1CCC[C@H](N1CCN(CCO)CC1)C2,> 10000
